We go through three compounds from article PMC10180197, “Novel Pyrimidine Derivatives as Antioxidant and Anticancer Agents: Design, Synthesis and Molecular Modeling Studies” (Molecules, 2023).

The term viability denotes the share of living cells, or the viability signal relative to a control.

In one data set the test system is A549 cell line. Kind of data set: MTT cytotoxicity assay, A549. The settings on record: Homo sapiens; A549, 10 μΜ, 24 h; read-out: % Cell Toxicity 10 μΜ. Format: cell-based, human. As for the experimental part: The compounds of this study were also tested for their cytotoxic effects against the adenocarcinomic human alveolar basal epithelial cell line (A549) at different concentrations (100 μM, 75 μΜ, 50 μM and 10 μM).
(§1) Τhe MTT assay was used to evaluate cell viability or cell toxicity, depending on the cell line being tested. The experimental procedure was performed in a 96-well plate, where the cells were seeded and incubated (37 °C, 5% CO2) for 24 h to grow and cover the surface of the wells. Τhe seeding concentrations for the HaCaT and A549 cells were 30 × 10^4 cells/mL and 20 × 10^4 cells/mL, respectively. After the first incubation, the solutions of the compounds (with different concentrations) were added to the adherent cells and incubated for another 24 h. The compounds were tested in triplicate against the control (only cells in medium), the blank (only medium) and the positive/negative control (cells in 100 μM silibinin solution) triplicates. Silibinin, a flavonoid with known anticancer activities, was used as a negative control for the cell viability assay and as positive control for the cytotoxicity testing assay. The light-sensitive MTT-standard solution was prepared by dissolving 1 mg/mL MTT in PBS and then filtrated (in a […] filter (Millipore, Carrigtwohill, Ireland)). On the third day, an appropriate amount of ΜΤΤ solution was added to each well and the plate was incubated for 4 h. During the incubation time, the formazan crystals were formed, which were then dissolved with 100 μL DMSO per well. Finally, the plate was stirred for 30 min, and the optical density (OD) was measured in a plate reader spectrophotometer at 450 nm.
In general terms: Tetrazolium assays rely on reduction of a dye to a coloured formazan, in cell work by metabolically active cells.
Take `O=c1[nH]c(=S)[nH]c2nc(-c3ccccc3)cc(-c3ccccc3)c12` [Compound 2a, 5,7-diphenyl-2-thioxo-2,3-dihydropyrido [2,3-d]pyrimidin-4(1H)-one]: the cytotoxicity at 10 µM worked out at 56.4%.

As for `O=C(/C=C/c1ccc(Cl)cc1Cl)c1ccc(Cl)cc1` [Compound 1h, (E)-1-(4-chlorophenyl)-3-(2,4-dichlorophenyl)prop-2-en-1-one], the cytotoxicity at 10 µM stood at 49.1%.

For the compound `O=C(/C=C/c1ccc(Cl)cc1)c1ccc(Cl)cc1` [Compound 1f, (E)-1,3-bis(4-chlorophenyl)prop-2-en-1-one], the cytotoxicity at 10 µM came to 48.9%.

Staying with this data set, now noted: Homo sapiens; A549, 50 μΜ, 24 h; read-out: % Cell Toxicity 50 μΜ.
In the case of `O=c1[nH]c(=S)[nH]c2nc(-c3ccccc3)cc(-c3ccccc3)c12` [Compound 2a, 5,7-diphenyl-2-thioxo-2,3-dihydropyrido [2,3-d]pyrimidin-4(1H)-one], the cytotoxicity at 50 µM was 75%.

With `O=C(/C=C/c1ccc(Cl)cc1Cl)c1ccc(Cl)cc1` [Compound 1h, (E)-1-(4-chlorophenyl)-3-(2,4-dichlorophenyl)prop-2-en-1-one], the cytotoxicity at 50 µM was 81.1%.

As for `O=C(/C=C/c1ccc(Cl)cc1)c1ccc(Cl)cc1` [Compound 1f, (E)-1,3-bis(4-chlorophenyl)prop-2-en-1-one], the cytotoxicity at 50 µM amounted to 67.6%.

The same data set, now with this note: Homo sapiens; A549, 100 μΜ, 24 h; read-out: % Cell Toxicity 100 μΜ.
With `O=c1[nH]c(=S)[nH]c2nc(-c3ccccc3)cc(-c3ccccc3)c12` [Compound 2a, 5,7-diphenyl-2-thioxo-2,3-dihydropyrido [2,3-d]pyrimidin-4(1H)-one], the cytotoxicity at 100 µM came out at 80.9%.

For the compound `O=C(/C=C/c1ccc(Cl)cc1Cl)c1ccc(Cl)cc1` [Compound 1h, (E)-1-(4-chlorophenyl)-3-(2,4-dichlorophenyl)prop-2-en-1-one], the cytotoxicity at 100 µM was determined as 100%.

As to `O=C(/C=C/c1ccc(Cl)cc1)c1ccc(Cl)cc1` [Compound 1f, (E)-1,3-bis(4-chlorophenyl)prop-2-en-1-one], the cytotoxicity at 100 µM was 100%.

Tested on in a further data set: not listed separately
In words: Reducing activity of the stable radical DPPH. The settings on record: 20 min. As for the experimental part: All the synthesized compounds were studied for their ability to interact with the stable free 2,2-diphenyl-1-picrylhydrazyl radical (DPPH) at a concentration of 100 μM after 20 min and 60 min (Table 4). This assay is based on the reduction of DPPH by transferring one electron from the antioxidant.
In vitro study was performed as reported previously by our group. In this experiment, 20 μL of the tested compound (from the stock solution), 980 μL EtOH and 1 mL ethanolic solution of DPPH (100 μM) were added in a testing tube in a final volume of 2 mL. The free radical scavenging ability was evaluated by recording the change of absorbance at 517 nm, produced by the reduction of DPPH, after 20 and 60 min at room temperature.
Turning to `O=c1[nH]c(=S)[nH]c2nc(-c3ccccc3)cc(-c3ccccc3)c12` [Compound 2a, 5,7-diphenyl-2-thioxo-2,3-dihydropyrido [2,3-d]pyrimidin-4(1H)-one], the “RA % 100 μM 20 min” value is 29%.

For the compound `O=C(/C=C/c1ccc(Cl)cc1Cl)c1ccc(Cl)cc1` [Compound 1h, (E)-1-(4-chlorophenyl)-3-(2,4-dichlorophenyl)prop-2-en-1-one], the “RA % 100 μM 20 min” value was “no”.

Take `O=C(/C=C/c1ccc(Cl)cc1)c1ccc(Cl)cc1` [Compound 1f, (E)-1,3-bis(4-chlorophenyl)prop-2-en-1-one]: the “RA % 100 μM 20 min” value is given as “no”.

Still in this data set, the particulars now being: 60 min.
With `O=c1[nH]c(=S)[nH]c2nc(-c3ccccc3)cc(-c3ccccc3)c12` [Compound 2a, 5,7-diphenyl-2-thioxo-2,3-dihydropyrido [2,3-d]pyrimidin-4(1H)-one], the “RA % 100 μM 60 min” value turned out to be 56%.

For the compound `O=C(/C=C/c1ccc(Cl)cc1Cl)c1ccc(Cl)cc1` [Compound 1h, (E)-1-(4-chlorophenyl)-3-(2,4-dichlorophenyl)prop-2-en-1-one], the “RA % 100 μM 60 min” value is given as “no”.

Regarding `O=C(/C=C/c1ccc(Cl)cc1)c1ccc(Cl)cc1` [Compound 1f, (E)-1,3-bis(4-chlorophenyl)prop-2-en-1-one], the “RA % 100 μM 60 min” value is on record as “no”.

Tested on in another data set: not listed separately
In words: Inhibition of AAPH induced linoleic acid peroxidation.
Details: not given
As for the experimental part: For the lipid peroxidation study, 2,2′-Azobis(2-methylpropionamidine) dihydrochloride (AAPH) was used as the generator of peroxy radicals and sodium linoleate as the substrate that undergoes peroxidation. The conversion of linoleic acid to 13-hydroperoxy-linoleic acid was recorded at 234 nm. The change of absorbance reflects the possible antioxidant activity of the tested compounds, in comparison with the reference compound, Trolox.
In vitro study was performed as reported previously by our group. AAPH was used as a free radical generator of alkyl peroxyl radicals. For this experimental procedure, 10 μL of the tested compound (from the stock solution), 10 μL sodium linoleate (16 mM), 50 μL AAPH (40 mM) and 930 μL phosphate-buffered solution (pH 7.4) were added in a UV cuvette (1 mL), pre thermostated at 37 °C. The ability of the compounds to prevent the oxidation of linoleic acid from alkyl peroxyl radicals was evaluated by recording the change of absorbance at 234 nm, due to the conversion of linoleic acid to 13-hydroperoxy-linoleic acid. Trolox was used as the reference.
On to `O=c1[nH]c(=S)[nH]c2nc(-c3ccccc3)cc(-c3ccccc3)c12` [Compound 2a, 5,7-diphenyl-2-thioxo-2,3-dihydropyrido [2,3-d]pyrimidin-4(1H)-one], for which the “AAPH % Inhibition 100 μM” value is given as 52%.

As to `O=C(/C=C/c1ccc(Cl)cc1Cl)c1ccc(Cl)cc1` [Compound 1h, (E)-1-(4-chlorophenyl)-3-(2,4-dichlorophenyl)prop-2-en-1-one], the “AAPH % Inhibition 100 μM” value came out at 2%.

For the compound `O=C(/C=C/c1ccc(Cl)cc1)c1ccc(Cl)cc1` [Compound 1f, (E)-1,3-bis(4-chlorophenyl)prop-2-en-1-one], the “AAPH % Inhibition 100 μM” value stood at 51%.

The test system of the next data set is HaCaT cell line. In words: MTT cell viability assay, HaCaT. Format: cell-based, human. The following applies: 100 μΜ, 24 h. How it is done: (§2) The MTT (3-(4,5-dimethylthiazol-2-yl)-2,5-diphenyltetrazolium bromide) assay is a colorimetric method that is used for the evaluation of cell viability. MTT is converted into colored formazan crystals, indicating the activity of mitochondria and therefore the viability of the cells. Unlike dead cells, the metabolic processes of living cells are functional, meaning that the dehydrogenase enzymes are able to reduce the yellow MTT salt solution to purple crystals, at 37 °C. The intensity of the sample’s color, due to the amount of formazan crystals, is proportional to the number of the living cells in it. Additionally, the colored product is dissolved in various solubilizing agents, such as dimethyl sulfoxide (DMSO). The colored products can be quantitatively measured at 450 nm with a plate reader spectrophotometer. In this study, the human epidermal keratinocyte cell line (HaCaT) was treated with different concentrations (100 μM, 50 μM, 10 μM and 1 μM) of the tested compounds and then the viability rates at each effect were calculated.
as §1
As to `O=c1[nH]c(=S)[nH]c2nc(-c3ccccc3)cc(-c3ccccc3)c12` [Compound 2a, 5,7-diphenyl-2-thioxo-2,3-dihydropyrido [2,3-d]pyrimidin-4(1H)-one], the “% Cell Viability 100 μΜ” value was “no”.

On to `O=C(/C=C/c1ccc(Cl)cc1Cl)c1ccc(Cl)cc1` [Compound 1h, (E)-1-(4-chlorophenyl)-3-(2,4-dichlorophenyl)prop-2-en-1-one], for which the “% Cell Viability 100 μΜ” value is “no”.

Consider `O=C(/C=C/c1ccc(Cl)cc1)c1ccc(Cl)cc1` [Compound 1f, (E)-1,3-bis(4-chlorophenyl)prop-2-en-1-one], for which the “% Cell Viability 100 μΜ” value is recorded as “no”.

Tested on in a further data set: not listed separately
In words: MTT cell viability assay, HaCaT. Format: cell-based, human. The following applies: human, HaCaT cells (epidermal keratinocyte cell line), 10 μΜ. How it is done: as §2, §1
`O=c1[nH]c(=S)[nH]c2nc(-c3ccccc3)cc(-c3ccccc3)c12` [Compound 2a, 5,7-diphenyl-2-thioxo-2,3-dihydropyrido [2,3-d]pyrimidin-4(1H)-one] had a viability at 24 h, 10 μM of 100%.

`O=C(/C=C/c1ccc(Cl)cc1Cl)c1ccc(Cl)cc1` [Compound 1h, (E)-1-(4-chlorophenyl)-3-(2,4-dichlorophenyl)prop-2-en-1-one] showed a viability at 24 h, 10 μM of 25.4%.

Compound `O=C(/C=C/c1ccc(Cl)cc1)c1ccc(Cl)cc1` [Compound 1f, (E)-1,3-bis(4-chlorophenyl)prop-2-en-1-one] returned a viability at 24 h, 10 μM of 100%.

The same data set, now with this note: human, HaCaT cells (epidermal keratinocyte cell line), 50 μΜ.
`O=c1[nH]c(=S)[nH]c2nc(-c3ccccc3)cc(-c3ccccc3)c12` [Compound 2a, 5,7-diphenyl-2-thioxo-2,3-dihydropyrido [2,3-d]pyrimidin-4(1H)-one] registered a viability at 24 h, 50 μM of 85.6%.

`O=C(/C=C/c1ccc(Cl)cc1)c1ccc(Cl)cc1` [Compound 1f, (E)-1,3-bis(4-chlorophenyl)prop-2-en-1-one] returned a viability at 24 h, 50 μM of 57%.

Tested on in another data set: not listed separately
Kind of data set: Experimental determination of lipophilicity as RM values (RP-TLC). The settings on record: methanol/water 70/30 v/v, 24 °C, SD < 10%. Format: physicochemical. From the text:
Lipophilicity is an important physicochemical parameter of a drug candidate, linking solubility and membrane permeability with the ADMET (absorption, distribution, metabolism, elimination and toxicity) properties and the overall suitability of a molecule. Reversed-phase thin-layer chromatography was the method used to experimentally determine the lipophilic character of the synthesized compounds as RM values (Table 2). Lipophilicity was also theoretically calculated as clog P values using the Bio-Loom program of BioByte Corp (http://www.biobyte.com/, (accessed on 1 March 2023)). An attempt was made to correlate the experimental RM values with the theoretically calculated clog P values (Table 2). […] This disagreement could be attributed to several factors, e.g., different solvation, silanophilic interactions and hydrogen bonding.
Lipophilicity as RM values was determined through reversed-phase TLC (RP-TLC) on silica gel plates impregnated with 5% v/v liquid paraffin in light petroleum ether. Methanol/water mixture (70/30, v/v) was used as mobile phase. Closed chromatography tanks saturated with the mobile phase at 24 °C were used for the development of the plates while the spots were detected under UV light. For the determination of RM values, five individual measurements of Rf values were recorded, and the RM values were derived from the following Equation (1). (1) RM=log1/Rf−1
Take `O=c1[nH]c(=S)[nH]c2nc(-c3ccccc3)cc(-c3ccccc3)c12` [Compound 2a, 5,7-diphenyl-2-thioxo-2,3-dihydropyrido [2,3-d]pyrimidin-4(1H)-one]: the RM is reported as −0.95.

The compound `O=C(/C=C/c1ccc(Cl)cc1Cl)c1ccc(Cl)cc1` [Compound 1h, (E)-1-(4-chlorophenyl)-3-(2,4-dichlorophenyl)prop-2-en-1-one] came in with an RM of −0.05.

`O=C(/C=C/c1ccc(Cl)cc1)c1ccc(Cl)cc1` [Compound 1f, (E)-1,3-bis(4-chlorophenyl)prop-2-en-1-one] came in with an RM of −0.24.
